In this assay the target is 3-phosphoinositide-dependent protein kinase 1 (Homo sapiens) (UniProt O15530). The experiment in a line: Inhibition of PDK1.

Drawing on BindingDB's records for doi:10.1016/j.bmcl.2009.10.049 (Wyeth Research, 2009), this text covers IC50 for one compound.

The term IC50 denotes the concentration that gives 50% inhibition. Low readings indicate inhibition by little substance, high ones a need for much substance. Consider `CN(C)Cc1ccc(-c2cnn3c(-c4cccc(NC(=O)c5cccc(C(F)(F)F)c5)c4)ccnc23)cc1` [N-[3-(3-{4-[(dimethylamino)methyl]phenyl}pyrazolo[1,5-a]pyrimidin-7-yl)phenyl]-3-(trifluoromethyl)benzamide], for which the half-maximal inhibitory concentration (IC50) was above 2 µM.
